Source: ChEMBL document CHEMBL1128296, “Quantitative binding site model generation: compass applied to multiple chemotypes targeting the 5-HT1A receptor” (J Med Chem, 1995)

Assay: Tested for activity against 5-hydroxytryptamine 1A receptor from bovine hippocampus

| SMILES | Ki [nM] |
| --- | --- |
| C=CCN1C[C@H]2c3c(O)cccc3CC[C@H]21 | 0.3 |
| COc1cccc2c1C[C@H]1CCN(CC3CC3)[C@@H]1C2 | 29 |
| COc1cccc2c1C[C@H]1CCN[C@@H]1C2 | 29 |
| COc1cccc2c1C[C@H]1CCN(CC3CC3)[C@H]1C2 | 721 |
| C=CCN1C[C@H]2c3c(cccc3OC)CC[C@H]21 | 5.9 |
| CCCN1CC[C@@H]2c3ccccc3CC[C@H]21 | 44 |
| C=CCN1CC[C@@H]2c3ccccc3CC[C@H]21 | 11 |
| COc1cccc2c1CC[C@@H]1[C@@H]2CCN1CC1CC1 | 66 |
| CCCN1CC[C@H]2c3ccccc3CC[C@H]21 | 37 |
| COc1cccc2c1C[C@H]1CCN(Cc3ccccc3)[C@@H]1C2 | 127 |
| CCCN1CC[C@H]2c3c(cccc3OC)CC[C@H]21 | 186 |
| C=CCN1CC[C@H]2c3ccccc3CC[C@H]21 | 31 |
